# Assay results taken from patent publication EP1130016A1, “THIOCARBAMIC ACID DERIVATIVES” (HOKURIKU SEIYAKU CO., LTD., priority 1998, dated 2000).
# Like-named read-outs stand apart in the source and are kept apart here.
# How the values were obtained:
# S.aureus Smith HPC023 = experiment: Antibacterial activity (MIC), type strains; type: cell-based; conditions: Staphylococcus aureus
# Procedure: (§1) Antibacterial activities (minimum inhibitory concentration: MIC) were determined according to the standard method of the Japan Society of Chemotherapy [Chemotherapy, Vol. 29, p.76 (1981)] by using type strains and strains isolated from patients with infectious disease (including clinical isolates and atypical acid-fast bacteria), and applying 10^6/ml of colony forming bacteria. Linezolid was used as the reference compound [a compound described in Journal of Medicinal Chemistry, Vol. 39, p.673 (1996), hereinafter referred to as "reference compound"].
# [1] = test system: B.subtilis ATCC 6633 HPR022; experiment: Antibacterial activity (MIC), type strains; type: cell-based; conditions: Bacillus subtilis, ATCC6633; type strain B.subtilis ATCC 6633 HPR022; 10^6/ml of colony forming bacteria
# Procedure: as §1
# S.aureus MS353 HPC017 = experiment: Antibacterial activity (MIC), type strains; type: cell-based; conditions: Staphylococcus aureus, MS353HPC017
# Procedure: as §1
# MRSA HPC 1336 = experiment: Antibacterial activity (MIC), clinical isolates; type: cell-based, Methicillin-resistant Staphylococcus aureus; conditions: Staphylococcus aureus
# Procedure: as §1
# MRSA HPC 432 = experiment: Antibacterial activity (MIC), clinical isolates; type: cell-based, Methicillin-resistant Staphylococcus aureus; conditions: Staphylococcus aureus
# Procedure: as §1
# M.avium 20096 = experiment: Antibacterial activity (MIC), atypical acid-fast bacteria; type: cell-based; conditions: Mycobacterium avium, 10^6/ml of colony forming bacteria
# Procedure: as §1
# M.avium 20092 = experiment: as above; type: cell-based; conditions: Mycobacterium avium, 10^6/ml of colony forming bacteria
# Procedure: as §1
# M.intracellulare 20073 = experiment: as above; type: cell-based; conditions: Mycobacterium intracellulare, 10^6/ml of colony forming bacteria
# Procedure: as §1
# M.intracellulare 20067 = experiment: as above; type: cell-based; conditions: Mycobacterium intracellulare, 10^6/ml of colony forming bacteria
# Procedure: as §1
# E.faecalis HPC 1321 = experiment: Antibacterial activity (MIC), clinical isolates; type: cell-based; conditions: Enterococcus faecalis, HPC1321
# Procedure: as §1
# E.faecium HPC 1322 = experiment: Antibacterial activity (MIC), clinical isolates; type: cell-based; conditions: Enterococcus faecium, HPC1322
# Procedure: as §1
# S.epidermidis HPC 1728 = experiment: Antibacterial activity (MIC), clinical isolates; type: cell-based; conditions: Staphylococcus epidermidis, HPC1728
# Procedure: as §1
# [2] = type strain S.aureus Smith HPC023, 10^6/ml of colony forming bacteria, read-out: MIC
# [3] = type strain S.aureus MS353 HPC017, 10^6/ml of colony forming bacteria, read-out: MIC
# [4] = clinical isolate MRSA HPC 1336, 10^6/ml of colony forming bacteria, read-out: MIC
# [5] = clinical isolate MRSA HPC 432, 10^6/ml of colony forming bacteria, read-out: MIC
# [6] = clinical isolate E.faecalis HPC 1321, 10^6/ml of colony forming bacteria, read-out: MIC
# [7] = clinical isolate E.faecium HPC 1322, 10^6/ml of colony forming bacteria, read-out: MIC
# [8] = clinical isolate S.epidermidis HPC 1728, 10^6/ml of colony forming bacteria, read-out: MIC
Compound,MIC (S.aureus Smith HPC023; [2]) [µg/mL],MIC [1] [µg/mL],MIC (S.aureus MS353 HPC017; [3]) [µg/mL],MIC (MRSA HPC 1336; [4]) [µg/mL],MIC (MRSA HPC 432; [5]) [µg/mL],MIC (M.avium 20096) [µg/mL],MIC (M.avium 20092) [µg/mL],MIC (M.intracellulare 20073) [µg/mL],MIC (M.intracellulare 20067) [µg/mL],MIC (E.faecalis HPC 1321; [6]) [µg/mL],MIC (E.faecium HPC 1322; [7]) [µg/mL],MIC (S.epidermidis HPC 1728; [8]) [µg/mL],MIC (S.aureus Smith HPC023) [µg/mL],MIC (S.aureus MS353 HPC017) [µg/mL],MIC (MRSA HPC 1336; MRSA) [µg/mL],MIC (MRSA HPC 432; MRSA) [µg/mL],MIC (E.faecalis HPC 1321) [µg/mL],MIC (E.faecium HPC 1322) [µg/mL],MIC (S.epidermidis HPC 1728) [µg/mL]
COC(=S)NC[C@H]1CN(c2ccc(N3CCCC3)c(F)c2)C(=O)O1 [Example 4],0.39,0.39,0.39,0.39,0.39,1.56,1.56,0.78,1.56,0.39,0.39,0.39,–,–,–,–,–,–,–
COC(=S)NC[C@H]1CN(c2ccc(N3CCS(=O)(=O)CC3)c(F)c2)C(=O)O1 [Example 3],0.78,0.39,0.78,0.78,0.78,3.13,3.13,3.13,3.13,0.39,0.39,0.39,–,–,–,–,–,–,–
"CC(=O)NC[C@H]1CN(c2ccc(N3CCOCC3)c(F)c2)C(=O)O1 [Reference compound, Linezolid, reference compound]",–,0.78,–,–,–,50,25,6.25,12.5,–,–,–,3.13,3.13,3.13,3.13,1.56,1.56,3.13
COC(=S)NC[C@H]1CN(c2ccc(N3CC[S+]([O-])CC3)c(F)c2)C(=O)O1 [Example 2],0.78,0.39,0.78,0.78,0.78,3.13,3.13,6.25,6.25,0.39,0.39,0.78,–,–,–,–,–,–,–
"COC(=S)NC[C@H]1CN(c2ccc(N3CCSCC3)c(F)c2)C(=O)O1 [Example 1, O-Methyl (S)-N-[3-[3-fluoro-4-(thiomorpholin-4-yl)phenyl]-2-oxooxazolidin-5-yl]methylthiocarbamate]",1.56,0.39,0.78,0.78,0.78,0.39,0.39,0.39,0.39,0.78,0.78,0.78,–,–,–,–,–,–,–
